{"source": "patent US20260217701A1", "about": "“SELECTIVE BET INHIBITORS AND USES THEREOF” (Tay Therapeutics Limited, priority 2022, published 2026)", "assay": "Dog PK study #3 (Compound A PO once daily 5 days, 5/10/20 mg/kg; PK, body weight, hematology)", "assay_type": "in vivo, beagle dogs", "design": "Plasma Concentration: unit not given here", "settings": "for Neutrophils: range 1.80-10.83; for White Blood Cells: range 4.81-15.67; for Platelets: range 127-393; for Accumulative Index of AUC0-last (Day 5/Day 1) / Accumulative Index of Cmax (Day 5/Day 1): PO", "experimental": "For the third dog pharmacokinetic study, three solutions of different concentrations of Compound A were prepared in 5% DMSO/15% PEG-400/80% (10% VE-TPGS) as outlined in Table 2E. The Compound A solutions were administered to animals orally (PO) once daily over a five-day period. Body weight was recorded prior to dosing, and detailed clinical observations were made prior to dosing and throughout the study, as needed.\nAnimals were divided into Day 1 and Day 5 sample collection groups, with animals in the Day 1 collection group having blood samples taken prior to dosing and at 0.25, 0.5, 1, 2, 4, 8, and 24 hours after dosing on day 1. Animals in the Day 5 collection group having blood samples taken prior to dosing and at 0.25, 0.5, 1, 2, 4, 8, and 24 hours after dosing on day 5. Study groups are outlined in Table 3D.\nBlood samples (~0.3 mL) were collected on day according to the following schedule (0.25, 0.5, 1, 2, 4, 8, and 24 h) after day 5 administration of Compound A by venipuncture of peripheral veins except for the dosing vein, and EDTA-K2 was used as anticoagulant. Within 30 minutes of collection, the samples were centrifuged at approximately 2000 times g-force for 10 minutes at 4° C. to obtain blood plasma. The plasma samples were immediately divided into two aliquots (~75 μL each), transferred to a cryogenic vial, and stored in a freezer at −75±15° C. prior to analysis.\nThe concentration of Compound A in the blood plasma was determined through LC-MS as previously described. Briefly, the experiments were conducted on a DMPK-LCMS-14-SMBA Triple Quad 6500 Plus instrument with an ACQUITY UPLC BEH C18 1.7 μm (50×2.1 mm) column. The matrix was male beagle dog plasma potassium (K2) EDTA A gradient of 95% water (0.1% formic acid and 2 mM HCOONH4)/95% acetonitrile (0.1% formic acid and 2 mM HCOONH4) was used as the mobile phase. The sample flow rate was 0.6 mL/min.\nThe samples were then vortex-mixed for 10 minutes at 800 rpm and centrifuged for 15 minutes at 3220×g at 4° C. 50 μL aliquots of supernatant were transferred to a clean 96-well plate and centrifuged for 5 minutes at 3220×g at 4° C. Samples were then injected into the LC/MS/MS system for quantitative analysis.\nThe gathered data were used for pharmacokinetic calculations using T1/2, CO, AUClast, AUCinf, MRTinf, Cl, Vss, and Number of Points for Regression as parameters.\nThe cell composition (hematology) of blood samples was analyzed at day 5. Analyses identified the total number of white blood cells, neutrophils, lymphocytes, monocytes, eosinophils, basophils, and platelets in collected samples.", "key": {"[1]": {"settings": "Day 5, 10 mg/kg dose PO, individual animals"}, "[2]": {"settings": "Day 5, 20 mg/kg dose PO, individual animals"}, "[3]": {"settings": "Day 5, Group 1, individual animals"}, "[4]": {"settings": "Day 5, Group 2, individual animals"}, "[5]": {"settings": "Day 5, Group 3, individual animals"}}, "note": "Several values for one entry are separate records, joined by “and”; a condition that tells them apart may be missing. Equal entries are not always repeated."}
{"smiles": "Cn1cc(-c2ccccc2)c(-c2cn(C)c(=O)c3[nH]c(-c4cnn(C(F)(F)F)c4)cc23)cc1=O", "note": "[Compound A, 6-methyl-4-(1-methyl-2-oxo-5-phenyl-1,2-dihydropyridin-4-yl)-2-(1-(trifluoromethyl)-1H-pyrazol-4-yl)-1,6-dihydro-7H-pyrrolo[2,3-c]pyridin-7-one]", "values": [{"measurement": "Neutrophils", "setting": "Day 5, 5 mg/kg/day (mean)", "value": "7.08 10^3/μL"}, {"measurement": "White Blood Cells", "setting": "Day 5, 5 mg/kg/day (mean)", "value": "10.59 103/μL"}, {"measurement": "Platelets", "setting": "Day 5, 5 mg/kg/day (mean)", "value": "224.0 10^3/μL"}, {"measurement": "Plasma Concentration", "setting": "Day 5, 10 mg/kg dose PO, time 1, individual animals", "value": "1610 and 2220"}, {"measurement": "Plasma Concentration", "setting": "Day 5, 10 mg/kg dose PO, time 1, mean", "value": 1915}, {"measurement": "Plasma Concentration", "setting": "Day 5, 10 mg/kg dose PO, time 2, individual animals", "value": "1740 and 2780"}, {"measurement": "Plasma Concentration", "setting": "Day 5, 10 mg/kg dose PO, time 2, mean", "value": 2260}, {"measurement": "Plasma Concentration", "setting": "Day 5, 10 mg/kg dose PO, time 4, individual animals", "value": "1460 and 2310"}, {"measurement": "Plasma Concentration", "setting": "Day 5, 10 mg/kg dose PO, time 4, mean", "value": 1885}, {"measurement": "Plasma Concentration", "setting": "Day 5, 10 mg/kg dose PO, time 8, individual animals", "value": "1190 and 1940"}, {"measurement": "Plasma Concentration", "setting": "Day 5, 10 mg/kg dose PO, time 8, mean", "value": 1565}, {"measurement": "AUC0-last", "setting": "[1]", "value": 36.083, "unit": "µg·h/mL"}, {"measurement": "AUC(0-inf)", "setting": "[1]", "value": 45.289, "unit": "µg·h/mL"}, {"measurement": "AUCExtra", "setting": "[1]", "value": "10.6% and 20.3%"}, {"measurement": "AUMCExtra", "setting": "[1]", "value": "32.6% and 51.3%"}, {"measurement": "Cl_F", "setting": "[1]", "value": "7.25 mL/min/kg and 3.68 mL/min/kg"}, {"measurement": "Cmax", "setting": "[1]", "value": 2780, "unit": "ng/mL"}, {"measurement": "MRT0-inf", "setting": "[1]", "value": 15.4, "unit": "h"}, {"measurement": "MRT0-last", "setting": "[1]", "value": 9.39, "unit": "h"}, {"measurement": "Tlast", "setting": "[1]", "value": 24.0, "unit": "h"}, {"measurement": "T½", "setting": "[1]", "value": 10.3, "unit": "h"}, {"measurement": "Vz_F", "setting": "[1]", "value": "4.58 L/kg and 3.27 L/kg"}, {"measurement": "AUC0-last", "setting": "Day 5, 10 mg/kg dose PO, mean", "value": 28.307, "unit": "µg·h/mL"}, {"measurement": "AUCExtra", "setting": "Day 5, 10 mg/kg dose PO, mean", "value": 15.5, "unit": "%"}, {"measurement": "AUMCExtra", "setting": "Day 5, 10 mg/kg dose PO, mean", "value": 42.0, "unit": "%"}, {"measurement": "Cl_F", "setting": "Day 5, 10 mg/kg dose PO, mean", "value": 5.47, "unit": "mL/min/kg"}, {"measurement": "Tlast", "setting": "Day 5, 10 mg/kg dose PO, mean", "value": 24.0, "unit": "h"}, {"measurement": "Vz_F", "setting": "Day 5, 10 mg/kg dose PO, mean", "value": 3.92, "unit": "L/kg"}, {"measurement": "Basophils", "setting": "Day 5, 10 mg/kg/day (mean), range 0.00-0.19", "value": "0.07 10^3/μL"}, {"measurement": "Eosinophils", "setting": "Day 5, 10 mg/kg/day (mean), range 0.00-1.24", "value": "0.40 10^3/μL"}, {"measurement": "Monocytes", "setting": "Day 5, 10 mg/kg/day (mean), range 0.11-1.08", "value": "0.48 10^3/μL"}, {"measurement": "Lymphocytes", "setting": "Day 5, 10 mg/kg/day (mean), range 1.42-3.76", "value": "3.31 10^3/μL"}, {"measurement": "Neutrophils", "setting": "Day 5, 10 mg/kg/day (mean)", "value": "6.59 10^3/μL"}, {"measurement": "White Blood Cells", "setting": "Day 5, 10 mg/kg/day (mean)", "value": "10.86 103/μL"}, {"measurement": "Platelets", "setting": "Day 5, 10 mg/kg/day (mean)", "value": "273.0 10^3/μL"}, {"measurement": "Plasma Concentration", "setting": "Day 5, 20 mg/kg dose PO, time 1, individual animals", "value": "3150 and 2130"}, {"measurement": "Plasma Concentration", "setting": "Day 5, 20 mg/kg dose PO, time 1, mean", "value": 2640}, {"measurement": "Plasma Concentration", "setting": "Day 5, 20 mg/kg dose PO, time 2, individual animals", "value": "3510 and 2220"}, {"measurement": "Plasma Concentration", "setting": "Day 5, 20 mg/kg dose PO, time 2, mean", "value": 2865}, {"measurement": "Plasma Concentration", "setting": "Day 5, 20 mg/kg dose PO, time 4, individual animals", "value": "3160 and 2040"}, {"measurement": "Plasma Concentration", "setting": "Day 5, 20 mg/kg dose PO, time 4, mean", "value": 2600}, {"measurement": "Plasma Concentration", "setting": "Day 5, 20 mg/kg dose PO, time 8, individual animals", "value": "2430 and 2170"}, {"measurement": "Plasma Concentration", "setting": "Day 5, 20 mg/kg dose PO, time 8, mean", "value": 2300}, {"measurement": "AUC0-last", "setting": "[2]", "value": "43.537 µg·h/mL and 16.801 µg·h/mL"}, {"measurement": "AUC(0-inf)", "setting": "[2]", "value": "49.399 µg·h/mL and 2087.5 µg·h/mL"}, {"measurement": "AUCExtra", "setting": "[2]", "value": "11.9% and 99.2%"}, {"measurement": "AUMCExtra", "setting": "[2]", "value": "35.5% and 100%"}, {"measurement": "Cl_F", "setting": "[2]", "value": "6.75 mL/min/kg and 0.160 mL/min/kg"}, {"measurement": "Cmax", "setting": "[2]", "value": 2220, "unit": "ng/mL"}, {"measurement": "MRT0-inf", "setting": "[2]", "value": "11.7 h and 955 h"}, {"measurement": "MRT0-last", "setting": "[2]", "value": "8.57 h and 4.03 h"}, {"measurement": "Tlast", "setting": "[2]", "value": "24.0 h and 8.00 h"}, {"measurement": "T½", "setting": "[2]", "value": 7.64, "unit": "h"}, {"measurement": "Vz_F", "setting": "[2]", "value": "4.46 L/kg and 9.29 L/kg"}, {"measurement": "AUC0-last", "setting": "Day 5, 20 mg/kg dose PO, mean", "value": 30.169, "unit": "µg·h/mL"}, {"measurement": "AUCExtra", "setting": "Day 5, 20 mg/kg dose PO, mean", "value": 55.6, "unit": "%"}, {"measurement": "AUMCExtra", "setting": "Day 5, 20 mg/kg dose PO, mean", "value": 67.8, "unit": "%"}, {"measurement": "Cl_F", "setting": "Day 5, 20 mg/kg dose PO, mean", "value": 3.45, "unit": "mL/min/kg"}, {"measurement": "Vz_F", "setting": "Day 5, 20 mg/kg dose PO, mean", "value": 6.87, "unit": "L/kg"}, {"measurement": "Animal body weight", "setting": "[3]", "value": "8.22 kg and 9.18 kg"}, {"measurement": "Clinical Observation", "setting": "[3]", "value": "None"}, {"measurement": "Animal Body Weight, Mean", "setting": "Day 5, Group 1, mean", "value": 8.70, "unit": "kg"}, {"measurement": "Animal body weight", "setting": "[4]", "value": "9.31 kg and 8.43 kg"}, {"measurement": "Clinical Observation", "setting": "[4]", "value": "None"}, {"measurement": "Animal Body Weight, Mean", "setting": "Day 5, Group 2, mean", "value": 8.87, "unit": "kg"}, {"measurement": "Animal body weight", "setting": "[5]", "value": "8.88 kg and 8.11 kg"}, {"measurement": "Clinical Observation", "setting": "[5]", "value": "None"}, {"measurement": "Animal Body Weight, Mean", "setting": "Day 5, Group 3, mean", "value": 8.50, "unit": "kg"}, {"measurement": "Accumulative Index of AUC0-last (Day 5/Day 1)", "setting": "dose level 5.00 mg/kg", "value": 1.53}, {"measurement": "Accumulative Index of Cmax (Day 5/Day 1)", "setting": "dose level 5.00 mg/kg", "value": 1.57}, {"measurement": "Accumulative Index of AUC0-last (Day 5/Day 1)", "setting": "dose level 10.0 mg/kg", "value": 1.62}, {"measurement": "Accumulative Index of Cmax (Day 5/Day 1)", "setting": "dose level 10.0 mg/kg", "value": 1.31}, {"measurement": "Accumulative Index of AUC0-last (Day 5/Day 1)", "setting": "dose level 20.0 mg/kg", "value": 0.445}, {"measurement": "Accumulative Index of Cmax (Day 5/Day 1)", "setting": "dose level 20.0 mg/kg", "value": 0.555}, {"measurement": "time plasma concentration remained above the free EC50 BD2", "setting": "all doses administered", "value": 24, "unit": "h"}, {"measurement": "white blood cell fraction parameters", "setting": "day 5", "value": "within range"}, {"measurement": "AUC(0-t)", "setting": "male, beagle, dog, plasma, po, 5 mg/kg, Day 1, 5 mg/kg dose PO, individual animals", "value": 11.6, "unit": "µg·h/mL"}]}
